Assays:
G6PD [1] = target: T1, G6PD (Homo sapiens, UniProt P11413); assay: Cellular thermal shift assay (CETSA) in HepG2 lysates; type: binding; parameters: endogenous in cells; conditions: up to 56° C.
Method: Lysates from HepG2 cells at 75% confluence were isolated with 0.5% Triton in TBS (20 mM, Tris pH 7.4, 150 mM NaCl) for 30 min on ice, pre-cleared by centrifugation and used for thermal shift assay as described 49. Briefly, inhibitor or DMSO control was added to lysates at indicated concentration and incubated for 30 min on ice followed by 3 min heating at 47° C., 50° C., 53° C., and 56° C. in a thermal cycler. After heating, tubes were cooled at room temperature for 3 min and insoluble fraction removed by centrifugation at 17,000 g for 20 min. The soluble fraction was separated by SDS-PAGE, transferred to PVDF membrane, and immunoblotted using indicated antibodies at a dilution of 1:2000. Blots were developed by chemiluminescence and imaged using LI-COR C-DiGit Western Blot Scanner. Two independent experiments were performed. Signal intensity of proteins from immunoblots was quantified using Image Studio version 5.2 for C-DiGit Scanner, and bands were normalized to signal intensity of the 47° C. treated samples. Relative signal intensities were plotted as bar graph relative to the DMSO treated control.
Target sequence in this assay (P11413 whole entry): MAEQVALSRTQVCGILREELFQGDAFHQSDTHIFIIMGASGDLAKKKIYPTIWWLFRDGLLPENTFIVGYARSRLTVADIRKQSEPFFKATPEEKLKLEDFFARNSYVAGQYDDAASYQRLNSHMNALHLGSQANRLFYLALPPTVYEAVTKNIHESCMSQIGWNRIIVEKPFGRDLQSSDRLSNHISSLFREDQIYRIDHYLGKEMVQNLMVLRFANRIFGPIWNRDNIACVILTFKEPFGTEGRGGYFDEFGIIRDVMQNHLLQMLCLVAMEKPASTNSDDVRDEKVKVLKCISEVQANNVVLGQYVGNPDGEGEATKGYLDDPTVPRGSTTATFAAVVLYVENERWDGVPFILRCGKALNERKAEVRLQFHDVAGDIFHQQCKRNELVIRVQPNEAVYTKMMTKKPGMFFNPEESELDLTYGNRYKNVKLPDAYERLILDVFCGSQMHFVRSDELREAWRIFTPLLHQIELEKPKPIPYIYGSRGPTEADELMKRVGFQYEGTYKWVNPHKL

G6PD [2] = target: T1, G6PD; assay: 6-pg levels in HepG2 cells (cellular target engagement); type: cell-based; parameters: endogenous in cells; conditions: for dose-dependent decrease in 6-pg levels: dose-response
From the text: Direct Monitoring of 6-pg in cells. The metabolite 6-phosphogluconate (6-pg) is a downstream product of the G6PD reaction, and is believed to be made predominantly by the oxidative pentose phosphate pathway in mammalian cells. Though the direct product of G6PD is the lactone form of 6-pg (6-phosphogluconolactone), this product is believed to readily hydrolyze to 6-pg under cellular conditions, and is therefore difficult to detect. Thus, to directly monitor the G6PD reaction, methods for measuring 6-pg levels in intact cells were developed.
To explore this possibility further, more specific assays for evaluating G6PD cellular target engagement were developed. […] These included the hepatocellular carcinoma line, HepG2, which was selected as the primary cell for direct 6-pg monitoring. Consistent with the oxPPP being the primary source of 6-pg in these cells, G6PD knockout led to nearly complete 6-pg loss (FIGS. 1B and 1C).
(§1) For analysis of intracellular metabolites by LC-MS, adherent cell lines were plated and grown to 80% confluency in 6-well plates. At the start of an experiment, the appropriate media was added to cells, which included isotope tracers and/or chemical inhibitors as described. Cells were incubated at 37° C. at 5% CO2 for 2 hours (unless otherwise noted). For all experiments involving small molecule agents, DMSO concentrations were <0.2%. After 2 hours, media was removed by aspiration and metabolome extraction was performed (without any wash steps) by the addition of 800 µL of ice cold solvent (40:40:20 acetonitrile:methanol:water + 0.5% formic acid). After a 1-minute incubation on ice, the extract was neutralized by the addition of NH4HCO3 (15% w/v). The samples were incubated at -20° C. for approximately 30 minutes, at which point the wells were scraped and the extract transferred to Eppendorf tubes and centrifuged (15 minutes, 16000 rpm, 4° C.). The resulting supernatant was frozen on dry ice and kept at -80° C. until LC-MS analysis.
Metabolites were analyzed using a quadrupole-orbitrap mass spectrometer (Q Exactive Plus, Thermo Fisher Scientific, Waltham, MA), coupled to hydrophilic interaction chromatography (HILIC) with LC separation on a XBridge BEH Amide column (Waters), or a stand-alone orbitrap (Thermo-Fisher Exactive) coupled to reversed-phase ion-pairing chromatography with LC separation on a HSS-T3 column (Waters). Both mass spectrometers were operating in negative ion mode and were coupled to their respective liquid chromatography methods via electrospray-ionization. Detailed analytical conditions have been previously described.
Target sequence in this assay (P11413 whole entry): as above

G6PD [3] = target: T1, G6PD; assay: 2H transfer from 1-2H-glucose to NADPH active hydride and C16:0 in HCT116 cells; type: cell-based; parameters: endogenous in cells; host or cells: HCT116; conditions: for dose-dependent decrease in 2H transfer from 1-2H-glucose to NADPH's active hydride: HCT116 cells, dose-response
From the text: Direct Monitoring of NADPH Produced by the G6PD Reaction. […] NADPH production is compartmentalized, and occurs through reduction of its redox partner NADP^+. G6PD is one of the main enzymes that generates NADPH, and catalyzes the transfer of electrons (in the form of hydride) from glucose-6-phosphate to NADP^+. By installing a deuterium at the “one” position of glucose (1-^2H-glucose), the transfer of that deuterium to the active hydride of NADPH via glucose-6-phosphate can be specifically monitored. Also, a major use of cytosolic NADPH is fat synthesis. Transfer of ^2H from glucose via NADPH into free palmitate (C16:0) requires two NADPH per two-carbon unit addition during its synthesis.
Next, G6PD mediated hydride transfer to NADPH was directly monitored. Specifically, transfer of deuterium from 1-^2H-glucose, via glucose-6-phosphate, to the NADPH’s active hydride was monitored (FIG. 1B). […] The impacted step was G6PD, as no change in substrate (G6P) labeling was observed (FIG. 1E). A major use of cytosolic NADPH is fat synthesis. Transfer of ^2H from glucose via NADPH into palmitate (C16:0), which requires two NADPH per 2-carbon unit addition during its synthesis, was quantified (FIG. 1B).
For all experiments involving stable isotope tracers (e.g., 1-^2H-glucose), the isotope tracer nutrient was substituted for unlabeled nutrient at the same concentration normally found in the base media for a given cell type (e.g., DMEM for HCT116, RPMI for T cells, etc.). In addition, dialyzed FBS was used as a supplement in place of FBS.
Cytosolic NADPH sources were traced, and redox active hydride labeling was calculated, using a previously described strategy. 1-^2H-glucose (which directly traces G6PD) or 3-^2H-glucose (which directly traces PGD) were used for tracing oxPPP contribution to NADPH; 4-^2H-glucose for ME1; [2,3,3,4,4-^2H5]-glutamine, for both ME1 and IDH1; and D2O, to account for solvent exchange.
as §1
Target sequence in this assay (P11413 whole entry): as above

G6PD [4] = target: T1, G6PD; assay: G6PD enzymatic activity by diaphorase-coupled assay
Target sequence in this assay (P11413 28-515): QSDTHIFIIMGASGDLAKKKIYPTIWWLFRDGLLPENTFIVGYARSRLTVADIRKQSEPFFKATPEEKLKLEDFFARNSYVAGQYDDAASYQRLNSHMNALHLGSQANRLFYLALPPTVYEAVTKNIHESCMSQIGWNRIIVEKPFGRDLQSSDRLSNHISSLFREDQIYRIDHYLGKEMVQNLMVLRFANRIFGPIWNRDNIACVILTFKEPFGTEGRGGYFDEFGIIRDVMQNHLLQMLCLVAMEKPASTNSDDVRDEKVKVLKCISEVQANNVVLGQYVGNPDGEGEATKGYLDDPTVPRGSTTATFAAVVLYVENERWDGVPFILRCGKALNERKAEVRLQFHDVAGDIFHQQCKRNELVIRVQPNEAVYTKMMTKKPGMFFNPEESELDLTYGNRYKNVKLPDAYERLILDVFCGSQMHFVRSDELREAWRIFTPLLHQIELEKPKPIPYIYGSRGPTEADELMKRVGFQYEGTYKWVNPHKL

G6PD [5] = target: T1, G6PD; assay: G6PD enzymatic activity by LC-MS (6-pg production); type: biochemical; parameters: Partially truncated human G6PD (residues 28-515, Uniprot ID P11413); His6 with thrombin cleavage site (N, cleaved yes); made in house; host or cells: Escherichia coli BL21(DE3)pLysS; conditions: orthogonal LC-MS assay
Method: Aliquots of reaction mixture were collected at indicated time points and rapidly quenched by diluting (1:5) into methanol precooled on dry ice. The mixtures were centrifuged at 13,000 rcf for 20 minutes at 4° C., and the resulting supernatants were diluted (1:20) into 40:40:20 methanol/ acetonitrile/ water and analyzed by LC-MS.
Target sequence in this assay (P11413 28-515): as above

Structure (SMILES)	thermal stabilization of G6PD (G6PD [1])	6-pg level (G6PD [2]; HepG2 cells, 100 µM, 2 hours)	dose-dependent decrease in 6-pg levels (G6PD [2]; HepG2 cells)	C16:0 labeling (G6PD [3]; 100 µM, 2 hours)	NADPH active hydride labeling (G6PD [3]; 100 µM, 2 hours)	dose-dependent decrease in 2H transfer from 1-2H-glucose to NADPH's active hydride (G6PD [3])	IC50 (G6PD [4]; IC50 (half-maximal inhibitory constant) against human G6PD, coupled enzymatic assay, recombinant human enzyme)	activity against G6PD (G6PD [4]; in vitro)	6-pg production by recombinant human G6PD (G6PD [5])	6-pg levels (G6PD [2]; 50 µM, 2 hours)	NADPH active hydride labeling (G6PD [3]; 50 µM, 2 hours)
C[C@]12CC[C@H](O)CC1=CC[C@@H]1[C@@H]2CC[C@]2(C)C(=O)CC[C@@H]12 [DHEA, dehydroepiandrosterone]	not	did not impact the 6-pg level	not	did not decrease	did not decrease	not	~9.5 µM	–	–	–	–
CN(c1cccc(C#N)c1)c1ncc2c(n1)CCCC2=O [neg-ctrl, 3-[methyl(5-oxo-5,6,7,8-tetrahydroquinazolin-2-yl)amino]benzonitrile]	–	–	not	–	–	not	–	lacked any activity against G6PD	did not	–	–
OC[C@H]1O[C@@H](Oc2cc(O)cc(/C=C/c3ccc(O)cc3)c2)[C@H](O)[C@@H](O)[C@@H]1O [polydatin]	–	–	–	–	–	–	–	–	–	failed to decrease	failed to decrease
